Measured values reported in the CheMixHub viscosity set.
Several values for one entry are separate records, joined by “and”; a condition that tells them apart may be missing. Equal entries are not always repeated. ± gives the uncertainty stated by the source.

Columns and labels:
[1] = xn = mol fraction of the nth substance listed

C1CCCC1
viscosity [mPa·s]
Conditions | 293.15 K | 303.15 K | 313.15 K
100 kPa | 0.428 ± 0.03 | 0.385 ± 0.03 | 0.348 ± 0.03
101 kPa | – | 0.387 ± 0.0033 | –
101.3 kPa | – | – | 0.3545 ± 0.004

C=CCc1ccc2c(c1)OCO2
Conditions | viscosity [mPa·s]
298.15 K, 101 kPa | 2.29 ± 0.028

CC(=O)OC(C)=O
viscosity [mPa·s]
Conditions | 298.15 K | 313.15 K | 323.15 K
101 kPa | 0.842 ± 0.008 | 0.693 ± 0.007 | –
101.33 kPa | 0.831 ± 0.0083 | – | 0.611 ± 0.0061

CC(C)(C)C1CCCCC1
102 kPa
Conditions | viscosity [mPa·s]
293.15 K | 1.7 ± 0.02
303.15 K | 1.42 ± 0.02
313.15 K | 1.21 ± 0.02
323.15 K | 1.04 ± 0.02

CCC(=O)CC
viscosity
Conditions | 298.15 K | 303.15 K | 308.15 K | 313.15 K | 318.15 K
100 kPa | – | 0.428 ± 0.017 mPa·s | – | 0.366 ± 0.015 mPa·s | –
101 kPa | 0.449 ± 0.006 mPa·s and 0.437 ± 0.016 mPa·s | – | 0.396 ± 0.005 mPa·s and 0.393 ± 0.016 mPa·s | 0.376 ± 0.011 mPa·s and 0.376 ± 0.005 mPa·s | –
101.33 kPa | 0.408 ± 0.005 mPa·s | 0.424 ± 0.012 mPa·s | 0.373 ± 0.005 mPa·s | – | 0.351 ± 0.005 mPa·s

CCC(C)CC(C)C (configuration not stated)
100 kPa
Conditions | viscosity [mPa·s]
293.15 K | 0.476 ± 0.01
298.15 K | 0.455 ± 0.01
303.15 K | 0.434 ± 0.009
308.15 K | 0.416 ± 0.009
313.15 K | 0.4 ± 0.009

CCN(CC)C(C)=O
Conditions | viscosity [mPa·s]
298.16 K, 101 kPa | 1.226 ± 0.011

CN1CCCC1=O
viscosity
Conditions | 293.15 K | 298 K | 303 K | 303.15 K | 313 K | 313.15 K | 318 K | 323 K | 323.15 K
100 kPa | 1.853 ± 0.076 mPa·s | – | – | – | – | – | – | – | –
101 kPa | 1.91 ± 0.018 mPa·s | 1.61 ± 0.16 mPa·s | 1.5 ± 0.15 mPa·s | 1.623 ± 0.016 mPa·s and 1.521 ± 0.019 mPa·s | 1.29 ± 0.13 mPa·s | 1.401 ± 0.014 mPa·s and 1.3 ± 0.52 mPa·s | 1.22 ± 0.12 mPa·s | 1.12 ± 0.11 mPa·s | 1.231 ± 0.013 mPa·s

C[n+]1ccn(CCCCCn2cc[n+](C)c2)c1.O=S(=O)([N-]S(=O)(=O)C(F)(F)F)C(F)(F)F.O=S(=O)([N-]S(=O)(=O)C(F)(F)F)C(F)(F)F
101 kPa
Conditions | viscosity
293.15 K | 1125 ± 120 mPa·s and 1123 ± 120 mPa·s
303.15 K | 554.9 ± 45 mPa·s and 556.8 ± 45 mPa·s
313.15 K | 313.4 ± 20 mPa·s and 310.4 ± 19 mPa·s
323.15 K | 192.3 ± 9 mPa·s and 188.8 ± 8.7 mPa·s

NCCO
viscosity
Conditions | 293.15 K | 298.15 K | 303.15 K | 313.15 K | 318.15 K | 323.15 K
101 kPa | 31.3 ± 0.52 mPa·s | 18.64 ± 7.5 mPa·s | 15.34 ± 0.18 mPa·s and 14.05 ± 0.1 mPa·s | 9.9 ± 4 mPa·s and 9.972 ± 0.14 mPa·s and 9.95 ± 0.07 mPa·s | 8.1 ± 3.2 mPa·s | 6.88 ± 0.08 mPa·s and 9.44 ± 0.18 mPa·s and 7.01 ± 0.1 mPa·s
101.3 kPa | – | – | – | 9.702 ± 0.069 mPa·s | – | –

NCCO.O=S(=O)([N-]S(=O)(=O)C(F)(F)F)C(F)(F)F.[Li+]
Conditions | viscosity [mPa·s]
323.15 K, 101 kPa | 1157 ± 260

OCc1ccccc1
Conditions | viscosity
293.15 K, 100 kPa | 6.421 ± 0.13 mPa·s
293.15 K, 101.33 kPa | 6.536 ± 0.054 mPa·s
298.15 K, 101 kPa | 4.936 ± 0.21 mPa·s and 5.54 ± 0.11 mPa·s and 5.737 ± 0.15 mPa·s
298.15 K, 101.3 kPa | 5.313 ± 0.063 mPa·s
298.15 K, 101.33 kPa | 5.276 ± 0.14 mPa·s
303.15 K, 101.3 kPa | 4.609 ± 0.26 mPa·s and 4.515 ± 0.054 mPa·s
308.15 K, 101 kPa | 3.66 ± 0.16 mPa·s and 4.045 ± 0.19 mPa·s
308.15 K, 101.3 kPa | 3.877 ± 0.047 mPa·s
308.15 K, 101.33 kPa | 3.891 ± 0.11 mPa·s
313.15 K, 101 kPa | 3.121 ± 0.14 mPa·s and 3.614 ± 0.17 mPa·s and 3.51 ± 0.07 mPa·s
318.15 K, 101.33 kPa | 2.945 ± 0.081 mPa·s
323.15 K, 101 kPa | 2.646 ± 0.022 mPa·s and 2.548 ± 0.11 mPa·s
323.15 K, 101.33 kPa | 2.591 ± 0.071 mPa·s

CC(=O)OC(C)=O + Oc1ccccc1
viscosity [mPa·s], [1], 101.33 kPa
Conditions | 298.15 K | 323.15 K
x2 = 0.0899 | 0.922 ± 0.0092 | 0.666 ± 0.0067
x2 = 0.1347 | 0.98 ± 0.0098 | 0.706 ± 0.0071
x2 = 0.1492 | 1.014 ± 0.01 | 0.733 ± 0.0073
x2 = 0.2953 | 1.267 ± 0.013 | 0.896 ± 0.009
x2 = 0.3588 | 1.412 ± 0.014 | 0.951 ± 0.0095
x2 = 0.4184 | 1.559 ± 0.016 | 1.05 ± 0.01
x2 = 0.4673 | 1.706 ± 0.017 | 1.1 ± 0.011
x2 = 0.4678 | 1.707 ± 0.017 | 1.1 ± 0.011
x2 = 0.5 | 1.839 ± 0.018 | 1.164 ± 0.012
x2 = 0.5169 | 1.89 ± 0.019 | 1.191 ± 0.012
x2 = 0.5846 | 2.069 ± 0.021 | 1.275 ± 0.013
x2 = 0.6414 | 2.668 ± 0.027 | 1.513 ± 0.015
x2 = 0.78 | 3.958 ± 0.04 | 2.017 ± 0.02
x2 = 0.8878 | 5.906 ± 0.059 | 2.623 ± 0.026

OCc1ccccc1 + c1ccccc1
[1]
Conditions | viscosity
293.15 K, 101.32 kPa, x1 = 0.03068 | 0.6725 ± 0.14 mPa·s
293.15 K, 101.32 kPa, x1 = 0.04509 | 0.6903 ± 0.14 mPa·s
293.15 K, 101.32 kPa, x1 = 0.1059 | 0.7825 ± 0.16 mPa·s
293.15 K, 101.32 kPa, x1 = 0.1545 | 0.8652 ± 0.17 mPa·s
293.15 K, 101.32 kPa, x1 = 0.1997 | 0.9735 ± 0.2 mPa·s
298.15 K, 101.33 kPa, x1 = 0.1 | 0.7 ± 0.019 mPa·s
298.15 K, 101.33 kPa, x1 = 0.2 | 0.855 ± 0.017 mPa·s and 0.855 ± 0.023 mPa·s
298.15 K, 101.33 kPa, x1 = 0.5 | 1.712 ± 0.034 mPa·s and 1.712 ± 0.047 mPa·s
298.15 K, 101.33 kPa, x1 = 0.8 | 3.267 ± 0.091 mPa·s
303.15 K, 101 kPa, x1 = 0.1079 | 0.8732 ± 0.0083 mPa·s
303.15 K, 101 kPa, x1 = 0.2167 | 1.03 ± 0.0097 mPa·s
303.15 K, 101 kPa, x1 = 0.3472 | 1.291 ± 0.012 mPa·s
303.15 K, 101 kPa, x1 = 0.4657 | 1.601 ± 0.015 mPa·s
303.15 K, 101 kPa, x1 = 0.5516 | 1.877 ± 0.017 mPa·s
303.15 K, 101 kPa, x1 = 0.6577 | 2.306 ± 0.021 mPa·s
303.15 K, 101 kPa, x1 = 0.7244 | 2.653 ± 0.023 mPa·s
303.15 K, 101 kPa, x1 = 0.868 | 3.594 ± 0.031 mPa·s
303.15 K, 101 kPa, x1 = 0.9178 | 3.983 ± 0.035 mPa·s
308.15 K, 101.33 kPa, x1 = 0.1 | 0.597 ± 0.016 mPa·s
308.15 K, 101.33 kPa, x1 = 0.2 | 0.714 ± 0.019 mPa·s
308.15 K, 101.33 kPa, x1 = 0.5 | 1.379 ± 0.038 mPa·s
308.15 K, 101.33 kPa, x1 = 0.8 | 2.433 ± 0.067 mPa·s
318.15 K, 101.33 kPa, x1 = 0.1 | 0.526 ± 0.014 mPa·s
318.15 K, 101.33 kPa, x1 = 0.2 | 0.617 ± 0.017 mPa·s
318.15 K, 101.33 kPa, x1 = 0.5 | 1.139 ± 0.031 mPa·s
318.15 K, 101.33 kPa, x1 = 0.8 | 1.904 ± 0.052 mPa·s
323.15 K, 101.33 kPa, x1 = 0.1 | 0.493 ± 0.013 mPa·s
323.15 K, 101.33 kPa, x1 = 0.2 | 0.578 ± 0.012 mPa·s and 0.575 ± 0.016 mPa·s
323.15 K, 101.33 kPa, x1 = 0.5 | 1.026 ± 0.021 mPa·s and 1.026 ± 0.028 mPa·s
323.15 K, 101.33 kPa, x1 = 0.8 | 1.695 ± 0.046 mPa·s

c1ccc(-c2ccccc2)cc1 + c1ccccc1
[1], 298.15 K, 101 kPa
Conditions | viscosity [mPa·s]
x1 = 0.1006 | 0.7585 ± 0.02
x1 = 0.1824 | 0.9014 ± 0.024
x1 = 0.3638 | 1.298 ± 0.034

O=CNc1ccccc1 + c1ccncc1
[1], 298.15 K, 101 kPa
Conditions | viscosity [mPa·s]
x1 = 0.06989 | 1.089 ± 0.22
x1 = 0.1339 | 1.335 ± 0.27
